According to ChEMBL document CHEMBL1201862, “PubChem BioAssay data set” (2004):
The source made the active and inactive calls.

Key:
[1] = system: HEK293; test: optical interference in Abeta FP readout, dose response, artefact control for IDE activator project, biochemical, fluorescence polarization (AID 588442); type: functional, cell-based; details: Homo sapiens
[2] = system: HEK293; test: membrane integrity loss in HEK cells – cell-based, fluorescence, cytotoxicity control for IDE activator project, dose response (AID 588440); type: functional; details: Homo sapiens;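 further: cytotoxicity by LDH release measuring loss of membrane integrity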
[3] = target: T1, Insulin-degrading enzyme (Homo sapiens, UniProt P14735); test: recombinant IDE activation, cell-free – biochemical, fluorescence polarization, counter-screen for IDE activator project, dose response (AID 588681)
T1 sequence (P14735 whole entry): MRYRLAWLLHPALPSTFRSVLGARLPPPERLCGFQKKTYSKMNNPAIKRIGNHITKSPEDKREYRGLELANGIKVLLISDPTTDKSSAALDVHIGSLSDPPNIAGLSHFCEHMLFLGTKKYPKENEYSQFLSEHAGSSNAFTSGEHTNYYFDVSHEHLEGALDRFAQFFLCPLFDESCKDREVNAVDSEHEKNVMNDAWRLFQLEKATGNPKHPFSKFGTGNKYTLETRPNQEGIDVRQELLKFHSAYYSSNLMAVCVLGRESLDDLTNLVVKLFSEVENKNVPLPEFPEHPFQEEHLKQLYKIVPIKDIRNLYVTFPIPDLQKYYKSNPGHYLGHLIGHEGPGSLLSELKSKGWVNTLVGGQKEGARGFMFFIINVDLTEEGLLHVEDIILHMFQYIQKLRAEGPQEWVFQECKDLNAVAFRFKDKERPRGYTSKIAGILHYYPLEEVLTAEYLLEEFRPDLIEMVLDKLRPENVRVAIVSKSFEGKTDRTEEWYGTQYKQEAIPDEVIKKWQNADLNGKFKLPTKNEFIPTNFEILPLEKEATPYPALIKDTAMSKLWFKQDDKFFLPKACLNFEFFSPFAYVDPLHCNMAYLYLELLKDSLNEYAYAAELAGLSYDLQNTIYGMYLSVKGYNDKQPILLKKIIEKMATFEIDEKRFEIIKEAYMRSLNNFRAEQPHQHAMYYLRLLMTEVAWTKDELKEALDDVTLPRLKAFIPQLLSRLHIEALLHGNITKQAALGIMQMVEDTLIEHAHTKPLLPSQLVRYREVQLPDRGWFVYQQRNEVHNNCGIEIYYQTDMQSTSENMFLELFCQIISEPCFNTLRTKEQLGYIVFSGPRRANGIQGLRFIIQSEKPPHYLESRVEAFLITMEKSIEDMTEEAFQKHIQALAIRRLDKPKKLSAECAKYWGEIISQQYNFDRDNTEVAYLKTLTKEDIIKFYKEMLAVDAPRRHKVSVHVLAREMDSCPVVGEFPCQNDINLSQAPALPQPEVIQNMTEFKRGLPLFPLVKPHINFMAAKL

[4] = target: T1, Insulin-degrading enzyme; test: cellular IDE activation of Abeta substrate cleavage – fluorescence polarization, HEK cells, dose response (AID 588439); type: functional, cell-based
[5] = target: T2, Sentrin-specific protease 8 (Homo sapiens, UniProt Q96LD8); test: inhibition of human SENP8 cleavage activity – biochemical, luminescence, SAR follow-up (AID 504501); type: functional
T2 sequence (Q96LD8 whole entry): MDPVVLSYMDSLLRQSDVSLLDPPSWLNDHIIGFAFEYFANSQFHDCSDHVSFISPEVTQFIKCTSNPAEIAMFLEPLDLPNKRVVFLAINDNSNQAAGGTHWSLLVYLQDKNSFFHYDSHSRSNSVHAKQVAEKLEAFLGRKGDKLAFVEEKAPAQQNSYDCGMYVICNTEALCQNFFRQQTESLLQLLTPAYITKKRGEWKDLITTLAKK

[6] = target: T3, Sentrin-specific protease 7 (Homo sapiens, UniProt Q9BQF6); test: inhibition of human SENP7 cleavage activity – biochemical, luminescence, SAR follow-up (AID 504497); type: functional
T3 sequence (Q9BQF6 whole entry): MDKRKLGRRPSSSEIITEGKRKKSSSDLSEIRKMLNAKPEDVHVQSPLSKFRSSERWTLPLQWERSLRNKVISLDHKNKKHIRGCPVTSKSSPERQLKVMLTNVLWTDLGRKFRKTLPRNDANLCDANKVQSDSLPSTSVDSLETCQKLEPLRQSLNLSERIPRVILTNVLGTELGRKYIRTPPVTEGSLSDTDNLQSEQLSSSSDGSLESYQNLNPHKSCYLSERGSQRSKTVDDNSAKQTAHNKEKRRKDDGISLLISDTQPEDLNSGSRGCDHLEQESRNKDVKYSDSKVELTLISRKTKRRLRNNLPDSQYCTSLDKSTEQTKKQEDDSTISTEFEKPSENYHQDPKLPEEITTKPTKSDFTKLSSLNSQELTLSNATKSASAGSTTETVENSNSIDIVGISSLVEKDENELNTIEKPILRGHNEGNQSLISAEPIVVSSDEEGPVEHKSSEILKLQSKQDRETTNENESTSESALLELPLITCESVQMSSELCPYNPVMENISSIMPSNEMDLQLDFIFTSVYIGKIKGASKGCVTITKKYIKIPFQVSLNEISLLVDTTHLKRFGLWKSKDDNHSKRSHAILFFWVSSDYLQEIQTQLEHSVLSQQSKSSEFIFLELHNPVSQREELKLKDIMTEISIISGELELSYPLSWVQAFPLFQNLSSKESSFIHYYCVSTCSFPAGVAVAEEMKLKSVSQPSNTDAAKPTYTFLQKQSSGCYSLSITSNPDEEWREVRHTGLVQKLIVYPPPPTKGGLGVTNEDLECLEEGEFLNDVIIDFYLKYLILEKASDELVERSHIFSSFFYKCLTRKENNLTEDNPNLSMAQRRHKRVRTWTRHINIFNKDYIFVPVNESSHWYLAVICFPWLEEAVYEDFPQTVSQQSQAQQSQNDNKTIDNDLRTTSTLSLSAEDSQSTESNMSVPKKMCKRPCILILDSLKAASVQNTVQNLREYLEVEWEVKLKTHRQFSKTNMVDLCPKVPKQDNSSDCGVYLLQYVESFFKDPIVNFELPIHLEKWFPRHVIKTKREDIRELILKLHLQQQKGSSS

[7] = target: T4, Sentrin-specific protease 6 (Homo sapiens, UniProt Q9GZR1); test: SAR Analysis of small molecule inhibitors of Sentrin-specific protease 6 (SENP6) using a Luminescent assay. [Related pubchem assays (depositor defined):AID2582, AID2599]; type: functional
T4 sequence (Q9GZR1 whole entry): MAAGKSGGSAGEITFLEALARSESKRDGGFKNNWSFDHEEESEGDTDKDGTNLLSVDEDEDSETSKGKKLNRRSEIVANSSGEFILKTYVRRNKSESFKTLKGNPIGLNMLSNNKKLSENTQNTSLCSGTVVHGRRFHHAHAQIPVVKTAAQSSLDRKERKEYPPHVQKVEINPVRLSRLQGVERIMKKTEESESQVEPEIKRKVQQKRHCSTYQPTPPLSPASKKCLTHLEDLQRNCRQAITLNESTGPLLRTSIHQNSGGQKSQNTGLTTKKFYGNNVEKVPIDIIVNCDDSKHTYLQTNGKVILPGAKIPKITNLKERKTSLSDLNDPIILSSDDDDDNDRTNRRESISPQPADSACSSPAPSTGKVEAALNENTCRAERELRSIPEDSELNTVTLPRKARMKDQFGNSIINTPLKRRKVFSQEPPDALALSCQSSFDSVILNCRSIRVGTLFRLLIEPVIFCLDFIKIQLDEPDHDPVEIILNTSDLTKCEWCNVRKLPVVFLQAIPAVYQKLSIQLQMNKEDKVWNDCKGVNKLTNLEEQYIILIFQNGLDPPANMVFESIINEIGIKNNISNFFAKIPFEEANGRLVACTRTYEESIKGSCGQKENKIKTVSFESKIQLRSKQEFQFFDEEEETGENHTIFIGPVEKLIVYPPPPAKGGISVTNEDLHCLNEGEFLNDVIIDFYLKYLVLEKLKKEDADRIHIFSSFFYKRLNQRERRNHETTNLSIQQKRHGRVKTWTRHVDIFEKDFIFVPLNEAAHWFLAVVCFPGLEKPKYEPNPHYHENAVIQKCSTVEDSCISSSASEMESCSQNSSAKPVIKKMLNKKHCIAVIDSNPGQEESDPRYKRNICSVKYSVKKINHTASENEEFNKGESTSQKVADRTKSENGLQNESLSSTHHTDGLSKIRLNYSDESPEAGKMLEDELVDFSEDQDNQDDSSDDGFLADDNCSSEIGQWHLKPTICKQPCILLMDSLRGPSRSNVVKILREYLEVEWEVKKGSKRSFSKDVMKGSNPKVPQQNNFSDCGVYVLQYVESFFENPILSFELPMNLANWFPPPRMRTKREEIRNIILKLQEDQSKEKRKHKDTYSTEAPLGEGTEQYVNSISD

[8] = target: T5, Caspase-3 (Homo sapiens, UniProt P42574); test: SAR Analysis of small molecule inhibitors of Sentrin-specific proteases (SENPs) using a Caspase-3 Selectivity assay. [Related pubchem assays (depositor defined):AID2540, AID2599, AID434973, AID489001]; type: functional
T5 sequence (P42574 whole entry): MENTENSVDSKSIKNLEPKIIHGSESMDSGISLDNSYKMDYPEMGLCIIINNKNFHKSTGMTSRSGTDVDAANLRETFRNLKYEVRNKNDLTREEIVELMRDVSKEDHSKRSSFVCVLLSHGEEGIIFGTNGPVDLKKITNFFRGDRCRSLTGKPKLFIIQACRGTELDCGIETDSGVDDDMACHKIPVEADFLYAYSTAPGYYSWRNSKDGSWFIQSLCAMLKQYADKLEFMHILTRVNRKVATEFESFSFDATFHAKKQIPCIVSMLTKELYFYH

COc1ccccc1NS(=O)(=O)c1cccc(NC(=O)C2CC2)c1
inactive: EC50 [1] > 55.9 µM | IC50 [2] > 89.2 µM | EC50 [3] > 54.7 µM | EC50 [4] > 54.7 µM

Fc1ccc(/C=C/c2noc(-c3ccc(C(F)(F)F)cc3F)n2)cc1
inactive: IC50 [5] > 99 µM | IC50 [6] > 99 µM | IC50 [7] > 99 µM | IC50 [8] > 99 µM

CC(C)(CC(=O)Nc1scc(-c2ccc(Br)cc2)c1C(=O)O)CC(=O)Nc1scc(-c2ccc(Br)cc2)c1C(=O)O
inactive: IC50 [5] > 99 µM | IC50 [6] > 99 µM | IC50 [7] > 99 µM | IC50 [8] > 99 µM

O=[N+]([O-])c1cccc(Cl)c1NCCNc1ncc(C(F)(F)F)cc1Cl
inactive: EC50 [1] > 54.7 µM | IC50 [2] > 89.2 µM | EC50 [3] > 54.7 µM | EC50 [4] > 54.7 µM

CC(=O)N1CCC(=O)Nc2ccc([N+](=O)[O-])cc21
inactive: EC50 [1] > 54.7 µM | IC50 [2] > 89.3 µM | EC50 [3] > 54.7 µM | EC50 [4] > 54.7 µM
